Experimental data taken from PMC10426190 (Breast Cancer Research : BCR, 2023).

Test system: E2-induced (ER target) genes in MCF7
Assay: Gene expression analysis by RNA-sequencing in MCF7 with E2 stimulation
Assay type: cell-based, human
Details: MCF7; 1 nM E2 ± 1 μM compound, 24 h
Method: MCF7 were cultured in hormone deprivation media (with 10% charcoal-stripped FBS) for at least 3 days before assay. Trypsinized cells were seeded in a 12-well plate, stimulated with 1 nM β-estradiol (E2), and treated with/without 1 μM compounds for 24 h. Total RNA was extracted using the TRIzol reagent according to the manufacturer’s protocol. RNA purity and quantification were evaluated using the NanoDrop 2000 spectrophotometer (Thermo Scientific, USA). RNA integrity was assessed using the Agilent 2100 Bioanalyzer (Agilent Technologies, Santa Clara, CA, USA). Then the libraries were constructed using TruSeq Stranded mRNA LT Sample Prep Kit (Illumina, San Diego, CA, USA) according to the manufacturer’s instructions. The transcriptome sequencing and analysis were conducted by OE Biotech Co., Ltd. (Shanghai, China). The libraries were sequenced on an Illumina HiSeq X Ten platform and 150 bp paired-end reads were generated. […] Raw data (raw reads) of FASTq format were firstly processed using Trimmomatic and the low-quality reads were removed to obtain the clean reads. […] The clean reads were mapped to the human genome (GRCh38) using HISAT2 [27]. FPKM [28] of each gene was calculated using Cufflinks, and the read counts of each gene were obtained by HTSeqcount. Differential expression analysis was performed using the DESeq (2012) R package.
MCF7 with hormone-deprived pre-treatment were administrated ER ligands or not present with 1 nM E2 stimulation for 24 h incubation in a 12-well plate. Total mRNA was isolated from treated cells and sequenced on an Illumina HiSeq X Ten platform. FPKM of each gene was calculated using Cufflinks and Differential expression genes analysis by using the DESeq (2012) R package. […] T47D EFM-19 and HCC1500 cells were grown in RPMI media supplemented with 10% charcoal-stripped FBS for 14 days and then treated with ER antagonist (1 μM) or DMSO in the presence E2 (1nM) stimulation for 24 h before RNA isolation and gene expression analysis as described in methods. […] The uteruses were harvested 24 h after the final doses and stained by toluidine blue. Endometrial height was assessed from the basement membrane to the luminal border (scale bar in green lines: 200 μm), Arrows indicate the uterine epithelium (e).

C[C@]12CC[C@@H]3c4ccc(O)cc4C[C@@H](CCCCCCCCC[S+]([O-])CCCC(F)(F)C(F)(F)F)[C@H]3[C@@H]1CC[C@@H]2O (some centres unmarked) [Fulvestrant]
ACTG2 expression: 1.20 FPKM
ADCY1 expression: 6.76 FPKM
AGR3 expression: 2.46 FPKM
AMZ1 expression: 0.77 FPKM
ANLN expression: 18.71 FPKM
ARHGAP36 expression: 0.28 FPKM
ASCL1 expression: 0.54 FPKM
ASF1B expression: 26.04 FPKM
ASMTL-2 expression: 1.41 FPKM
ATAD2 expression: 23.77 FPKM
ATRNL1 expression: 0.05 FPKM
AURKB expression: 19.26 FPKM
BIRC5 expression: 23.46 FPKM
BLM expression: 2.45 FPKM
BMPER expression: 0.11 FPKM
BRCA1 expression: 2.96 FPKM
BRCA2 expression: 2.04 FPKM
BRIP1 expression: 17.34 FPKM
BUB1B expression: 8.27 FPKM
C1orf226 expression: 3.74 FPKM
C5AR2 expression: 0.51 FPKM
CA2 expression: 87.89 FPKM
CA12 expression: 18.70 FPKM
CALCR expression: 0.77 FPKM
CAV1 expression: 5.48 FPKM
CCN5 expression: 22.35 FPKM
CCNA2 expression: 15.79 FPKM
CCNE2 expression: 4.70 FPKM
CD99-2 expression: 1.09 FPKM
CDC6 expression: 4.59 FPKM
CDC25A expression: 1.67 FPKM
CDC45 expression: 5.51 FPKM
CDCA3 expression: 6.06 FPKM
CDCA4 expression: 12.74 FPKM
CDCA5 expression: 11.52 FPKM
CDCA7 expression: 1.84 FPKM
CDH26 expression: 0.21 FPKM
CDK1 expression: 14.26 FPKM
CDT1 expression: 21.42 FPKM
CENPI expression: 2.93 FPKM
CENPU expression: 4.96 FPKM
CHAF1B expression: 1.52 FPKM
CHEK1 expression: 2.32 FPKM
CKS1B expression: 46.61 FPKM
CLSPN expression: 1.80 FPKM
COL12A1 expression: 1.73 FPKM
CXCL12 expression: 1.70 FPKM
DDIAS expression: 2.63 FPKM
DHRSX-2 expression: 0.11 FPKM
DKK1 expression: 26.72 FPKM
DNA2 expression: 2.77 FPKM
DPYSL5 expression: 0.36 FPKM
DSCC1 expression: 4.38 FPKM
DTL expression: 1.38 FPKM
E2F1 expression: 7.00 FPKM
E2F2 expression: 1.27 FPKM
E2F7 expression: 2.55 FPKM
E2F8 expression: 3.66 FPKM
ELOVL2 expression: 3.33 FPKM
EME1 expression: 3.73 FPKM
ERCC6L expression: 1.34 FPKM
ESCO2 expression: 2.24 FPKM
ESPL1 expression: 7.73 FPKM
EXO1 expression: 2.15 FPKM
FAM20A expression: 0.46 FPKM
FAM111B expression: 2.82 FPKM
FANCA expression: 9.92 FPKM
FANCD2 expression: 5.42 FPKM
FANCI expression: 16.43 FPKM
FEN1 expression: 24.35 FPKM
FIGNL1 expression: 2.36 FPKM
FKBP4 expression: 43.52 FPKM
GATA4 expression: 0.00 FPKM
GFRA1 expression: 26.23 FPKM
GINS1 expression: 8.52 FPKM
GINS2 expression: 8.09 FPKM
GJA1 expression: 0.06 FPKM
GLA expression: 31.47 FPKM
GP1BB expression: 0.79 FPKM
GPR68 expression: 0.13 FPKM
GPRIN1 expression: 2.95 FPKM
GREB1 expression: 3.94 FPKM
H2AX expression: 89.38 FPKM
HBB expression: 0.00 FPKM
HELLS expression: 2.89 FPKM
HEY2 expression: 0.43 FPKM
HMGB2 expression: 118.94 FPKM
IGFBP4 expression: 26.82 FPKM
IGSF1 expression: 3.55 FPKM
ITGA2B expression: 0.30 FPKM
KIF11 expression: 11.20 FPKM
KIF18B expression: 4.13 FPKM
KIFC1 expression: 12.36 FPKM
KLK11 expression: 1.75 FPKM
KNL1 expression: 3.41 FPKM
KNTC1 expression: 5.81 FPKM
LHX2 expression: 1.30 FPKM
LIG1 expression: 19.47 FPKM
LMNB1 expression: 49.03 FPKM
MAD2L1 expression: 6.32 FPKM
MCM2 expression: 24.98 FPKM
MCM3 expression: 30.18 FPKM
MCM4 expression: 38.73 FPKM
MCM5 expression: 9.71 FPKM
MCM6 expression: 18.69 FPKM
MCM7 expression: 65.17 FPKM
MCM10 expression: 2.51 FPKM
MELK expression: 9.66 FPKM
MKI67 expression: 19.11 FPKM
MYB expression: 3.86 FPKM
MYBL1 expression: 0.96 FPKM
MYBL2 expression: 29.90 FPKM
NCAPG2 expression: 15.05 FPKM
NCAPG expression: 5.76 FPKM
NPY1R expression: 3.20 FPKM
ORC1 expression: 2.67 FPKM
ORC6 expression: 5.57 FPKM
PAQR4 expression: 9.57 FPKM
PBK expression: 14.24 FPKM
PCLAF expression: 28.12 FPKM
PCNA expression: 48.34 FPKM
PDZK1 expression: 0.47 FPKM
PGR expression: 0.52 FPKM
PKIB expression: 16.14 FPKM
PKMYT1 expression: 9.90 FPKM
POLA1 expression: 2.69 FPKM
POLA2 expression: 4.51 FPKM
POLD1 expression: 11.19 FPKM
POLE2 expression: 2.45 FPKM
POLE expression: 11.56 FPKM
POLQ expression: 2.64 FPKM
PRIM1 expression: 7.88 FPKM
PRSS23 expression: 49.30 FPKM
RAB31 expression: 6.58 FPKM
RAD51AP1 expression: 5.24 FPKM
RAD51 expression: 3.28 FPKM
RAD54L expression: 3.44 FPKM
RAMP3 expression: 0.40 FPKM
RAPGEFL1 expression: 2.18 FPKM
RBL1 expression: 2.06 FPKM
RECQL4 expression: 10.79 FPKM
RERG expression: 2.17 FPKM
RET expression: 1.74 FPKM
RFC2 expression: 14.47 FPKM
RFC3 expression: 3.82 FPKM
RFC4 expression: 10.05 FPKM
RNASEH2A expression: 24.71 FPKM
RRM1 expression: 19.08 FPKM
RRM2 expression: 24.81 FPKM
RUBCNL expression: 0.10 FPKM
SDK2 expression: 0.25 FPKM
SFXN2 expression: 7.17 FPKM
SHCBP1 expression: 2.87 FPKM
SKA3 expression: 4.69 FPKM
SLC6A14 expression: 8.71 FPKM
SMC2 expression: 6.16 FPKM
SPC24 expression: 6.59 FPKM
SPC25 expression: 6.79 FPKM
STC2 expression: 28.34 FPKM
TACC3 expression: 19.06 FPKM
TCF19 expression: 6.28 FPKM
TCOF1 expression: 9.75 FPKM
TGM2 expression: 0.56 FPKM
TICRR expression: 3.71 FPKM
TK1 expression: 42.16 FPKM
TMEM26 expression: 0.84 FPKM
TMEM164 expression: 6.22 FPKM
TONSL expression: 9.44 FPKM
TOP2A expression: 29.21 FPKM
TP73 expression: 1.03 FPKM
TRIP13 expression: 6.92 FPKM
TUBA1B expression: 473.72 FPKM
TUBB expression: 230.78 FPKM
TYMS expression: 25.13 FPKM
UBE2C expression: 32.42 FPKM
UBE2T expression: 45.52 FPKM
UHRF1 expression: 6.71 FPKM
UNG expression: 29.02 FPKM
WDHD1 expression: 4.38 FPKM
WDR62 expression: 5.55 FPKM
WDR76 expression: 1.69 FPKM
XRCC2 expression: 2.48 FPKM
XRCC3 expression: 5.83 FPKM
ZGRF1 expression: 1.75 FPKM
ZNF367 expression: 4.18 FPKM
